Values quoted from earlier work, collected in patent publication US6977253B2, “Methods for the treatment of bipolar disorder using carbamazepine” (Shire Pharmaceutical Development Inc., priority 2003, dated 2005).

System: acute mania
Conditions: controlled carbamazepine monotherapy trials in acute mania; McElroy and Keck 2000

NC(=O)N1c2ccccc2C=Cc2ccccc21 [carbamazepine, 5-carbamoyl-5H-dibenz(b,f)azepine]
Pooled response rate: 52%
